Laboratory results reported in publication PMC8949771, “Gold(I)-Mediated Rapid Cyclization of Propargylated Peptides via Imine Formation” (Journal of the American Chemical Society, 2022).

Key:
[1] = Au(I)-mediated imine macrocyclisation (JohnPhosAu(MeCN)SbF6 2 equiv, Et4NBr 16 equiv) then in situ NaBH4 reduction to cyclic amine, HPLC isolation; conditions: the molecule shown is the open-chain precursor; 24-membered ring; DMF; 8.0 mM; 37.0 °C; 1.0 h; 2 steps
HeLa cells = assay: Live-cell uptake, confocal microscopy; assay type: cell-based; conditions: 2.5 μM, 1 h incubation, FITC signal, repeated in duplicates
Experimental: With both peptides in hand (5 and 6, Figure 7A), we investigated the binding efficiency using our fluorescence-based competitive assay.[38] […] Encouraged by these in vitro results, we explored the cellular uptake and apoptosis efficacy of the new cyclic peptide in living cells. To investigate the live cell delivery efficacy of the FITC-labeled peptides (9 and 10), both cyclic peptides were incubated for 1h with HeLa cells at different concentrations of 2.5, 5, 7, and 10 μM. […] After assessing the cellular uptake, we probed the controlled cell death or apoptosis in HeLa cells using only 2.5 μM peptides (3 and 5) and the known proteasome inhibitor MG-132 as a positive control. […] (Figure 7E).
To investigate the cellular delivery efficiency of the new cyclic peptide HeLa (CCL-2™) cells were seeded on ibidi poly-L-lysine (PLL) 8 well µ-slides in […] and were allowed to reach […]
~90% confluency over 24h. Cells were washed three times with warm PBS and serum-free DMEM (high glucose) followed by incubation for 1h with warm PBS/serum-free medium containing containing 2.5, 5, and 10 µM of fluorescently labeled cyclic peptides (9 and 10). Cells were then washed three times with warm PBS followed by adding 0.1 mg/ml heparin sulfate in PBS and incubating for 5min. […]

Row | Compound | ring closure, yield over several steps [1] [%] | cellular uptake (fluorescence in cells) (HeLa cells)
1 | C#CCN(C(=O)CNC(=O)[C@H](C)NC(=O)[C@H](CCCNC(=N)N)NC(=O)[C@H](Cc1ccc(O)cc1)NC(=O)[C@H](CC(C)C)NC(=O)CNC(=O)[C@@H](N)Cc1ccccc1)[C@H](C(N)=O)[C@@H](C)CC [H-Phe-Gly-Leu-Tyr-Arg-Ala-Gly-(N-propargyl)Ile-NH2] | 60 | 
2 | CC1=NCC(=O)N[C@@H](Cc2c[nH]c3ccccc23)C(=O)N[C@@H](Cc2ccccc2)C(=O)N[C@@H](CC(=O)O)C(=O)N[C@@H](CC(=O)O)C(=O)N[C@@H](CC(C)C)C(=O)N[C@@H](Cc2ccc(O)cc2)C(=O)N[C@@H](Cc2c[nH]c3ccccc23)C(=O)N[C@@H](Cc2ccccc2)C(=O)N[C@@H](C(C)C)C(=O)N[C@@H](C)C(=O)N[C@@H](Cc2ccc(O)cc2)C(=O)N(CC(=O)N[C@@H](C)C(=O)N[C@@H](CSC2CC(=O)N(c3ccc4c(c3)C(=O)OC43c4ccc(O)cc4Oc4cc(O)ccc43)C2=O)C(N)=O)C1 (some centres unmarked) [Peptide 10] |  | significant fluorescence
